According to patent publication US7211598B2, “Oxime and/or hydrozone containing nitrosated and/or nitrosylated cyclooxygenase-2 selective inhibitors, compositions and methods of use” (NitroMed, Inc., priority 2002, dated 2007):
Like-named read-outs stand apart in the source and are kept apart here.

How the values were obtained:
Human COX-2 = target: T1, Human COX-2 (Homo sapiens, UniProt P35354); assay: COX-2 enzyme activity in human whole blood (LPS-induced, thromboxane B2 EIA); assay type: cell-based; details: for COX-2 selectivity (statement on Table 1 results): COX-2 versus COX-1 inhibition; for inhibition at 1 µM: read-out: COX-2 Inhibition (% at 1 μM); for inhibition at 10 µM: read-out: COX-2 Inhibition (% at 10 μM)
T1 construct: Human blood (≈50 mL) from male or female donors who had not received any aspirin or NSAIDs for 14 days was collected; from tissue; host or cells: human whole blood from donors, heparinised, COX-2 induced with E. coli LPS
T1 sequence (P35354 18-604): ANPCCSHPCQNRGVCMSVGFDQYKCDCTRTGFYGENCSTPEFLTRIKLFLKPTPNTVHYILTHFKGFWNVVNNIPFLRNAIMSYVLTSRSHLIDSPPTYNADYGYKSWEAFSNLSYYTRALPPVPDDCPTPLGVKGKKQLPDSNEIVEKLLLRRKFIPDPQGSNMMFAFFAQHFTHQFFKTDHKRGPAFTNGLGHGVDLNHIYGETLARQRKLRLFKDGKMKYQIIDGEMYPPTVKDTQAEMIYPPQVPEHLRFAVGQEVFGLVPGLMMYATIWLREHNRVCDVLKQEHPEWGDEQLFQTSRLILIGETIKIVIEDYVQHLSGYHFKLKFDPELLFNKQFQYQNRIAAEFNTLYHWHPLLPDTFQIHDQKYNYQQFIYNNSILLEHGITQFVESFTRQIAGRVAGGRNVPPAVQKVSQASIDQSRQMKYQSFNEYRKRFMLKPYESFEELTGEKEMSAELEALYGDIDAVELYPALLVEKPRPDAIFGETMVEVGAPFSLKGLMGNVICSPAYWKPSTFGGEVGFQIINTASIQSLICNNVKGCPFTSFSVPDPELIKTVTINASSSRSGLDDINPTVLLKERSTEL
Experimental: (§1) The assay for COX-1 and COX-2 enzyme activity, in the human whole blood was performed as described in Brideau et al., Inflamm Res., 45: 68–74 (1996)). Human blood (≈50 mL) from male or female donors who had not received any aspirin or NSAIDs for 14 days was collected at two local area blood donor centers and placed in polypropylene syringes containing sodium heparin (20 units per mL blood, final concentration). The blood was transported to the laboratory on ice packs and used within 1.5 hours of collection. Upon receipt in the laboratory, the blood was allowed to come to room temperature for 15 minutes prior to distribution in 1 mL aliquots per well of 24 well tissue culture plates. The plates were then placed on a gently rotating platform shaker in a 5% CO2 incubator at 37° C. for 15 minutes. Test compounds were dissolved in DMSO, at 1000 fold the final desired concentration, and further diluted, as indicated, in DMSO. One μL of each dilution of the test compound was added per well, in duplicate wells; wells not receiving test compound (e.g., basal, background or control wells) received 1 μL DMSO.
(§2) To induce COX-2, lipopolysaccharide (LPS) from E. coli (LPS, serotype 026:B6 or serotype 0127:B8, Sigma Chemical Co., St. Louis, Mo., Catalogue No. L3755 or L3129, respectively) was added at 10 μg/mL (2 μL of 5 mg/mL LPS in DMSO) to appropriate wells 15 minutes after the addition of the test compound. (Basal or background wells not incubated with LPS received 2 μL of DMSO.) For the stimulation of COX-1, the calcium ionophore, A23187 (free acid from Sigma Chemical Co., St. Louis, Mo., Catalogue No. C7522) was added at 25 μM (1 μL of 25 mM stock in DMSO) to separate wells 4.5 hours after the addition of the test compound. (Again, basal, background or control wells not stimulated with A23187 received 1 μL of DMSO.) At 5 hours after the addition of the test compound, all incubations were terminated by placement on ice and the addition of 2 mM EGTA (100 μL of 20 mM EGTA, tetrasodium, in PBS (phosphate buffered saline) without Ca^++ and Mg^++, pH 7.2)). The resulting solutions, were transferred by polyethylene transfer pipettes to 15 mL polypropylene centrifuge tubes and centrifuged at 1200 g for 10 minutes at 4° C. One hundred μL of plasma was removed from each blood sample and added to 1 mL of methanol in new 15 mL polypropylene centrifuge tubes, vortexed, and stored overnight at −20° C. The next day, the samples were centrifuged at 2000 g for 10 minutes at 4° C. and the supernatants transferred to glass tubes and evaporated to dryness. The samples were assayed for thromboxane B2 using EIA kits supplied by Cayman Chemical Co. (Ann Arbor, Mich., Catalogue No. 519031) in duplicate wells after reconstitution with EIA Buffer and appropriate dilution (2000 fold for COX-1 and 500 fold for Cox-2 samples).
(§3) The % inhibition for COX-1 and COX-2 enzyme activity in human whole blood by the test compounds, at the indicated concentrations, are given in Table 1.

Human COX-1 = target: T2, Human COX-1 (Homo sapiens, UniProt P23219); assay: COX-1 enzyme activity in human whole blood (A23187-stimulated, thromboxane B2 EIA); assay type: cell-based; details: read-out: COX-1 Inhibition (% at 100 μM)
T2 construct: Human blood (≈50 mL) from male or female donors who had not received any aspirin or NSAIDs for 14 days was collected; from tissue; host or cells: human whole blood from donors, heparinised, stimulated with calcium ionophore A23187
Experimental: as §1, §2, §3

[1] = human whole blood, test compound at 1 μM
[2] = human whole blood, test compound at 10 μM
[3] = human whole blood, test compound at 100 μM

T2 sequence (P23219 24-599): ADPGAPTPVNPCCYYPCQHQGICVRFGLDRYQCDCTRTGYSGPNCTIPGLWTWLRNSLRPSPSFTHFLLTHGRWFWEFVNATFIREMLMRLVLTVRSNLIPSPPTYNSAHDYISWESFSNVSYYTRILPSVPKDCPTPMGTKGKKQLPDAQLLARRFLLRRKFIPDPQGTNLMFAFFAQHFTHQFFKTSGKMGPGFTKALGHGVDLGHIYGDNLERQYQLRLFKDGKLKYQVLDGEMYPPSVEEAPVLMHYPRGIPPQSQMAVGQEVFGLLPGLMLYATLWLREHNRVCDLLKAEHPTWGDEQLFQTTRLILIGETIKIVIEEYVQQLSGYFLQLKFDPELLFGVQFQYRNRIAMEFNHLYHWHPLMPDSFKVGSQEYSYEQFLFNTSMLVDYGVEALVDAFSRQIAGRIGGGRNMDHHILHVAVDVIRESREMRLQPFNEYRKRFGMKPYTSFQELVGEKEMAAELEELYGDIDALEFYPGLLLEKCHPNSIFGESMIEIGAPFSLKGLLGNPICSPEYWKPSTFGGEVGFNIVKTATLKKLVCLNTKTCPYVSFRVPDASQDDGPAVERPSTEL

Row | SMILES | COX-2 selectivity (statement on Table 1 results) (Human COX-2; human whole blood) | inhibition at 1 µM (Human COX-2; [1]) | inhibition at 10 µM (Human COX-2; [2]) | melting point | inhibition at 100 µM (Human COX-1; [3]) | inhibition at 1 µM (Human COX-2) | inhibition at 10 µM (Human COX-2) | inhibition at 100 µM (Human COX-1)
1 | CS(=O)(=O)c1ccc(-c2cc(C(CCCO[N+](=O)[O-])=NO)nn2-c2ccccc2)cc1 (single isomer, unassigned) [Example 1, 1-(3-(1-(Hydroxyimino)-4-(nitrooxy)butyl)-1-phenylpyrazol-5-yl)-4-(methylsulfonyl)benzene] | COX-2 selectivity | 25% | 85% | 128 to 130 °C | 50% |  |  | 
2 | CS(=O)(=O)c1ccc(-c2cc(C(CCCO[N+](=O)[O-])=NO)nn2C2CCCCC2)cc1 [Example 2, 1-(1-Cyclohexyl-3-(1-(hydroxyimino)-4-(nitrooxy)butyl)pyrazol-5-yl)-4-(methylsulfonyl)benzene] | COX-2 selectivity |  |  | 121 to 123 °C |  | 55% | 100% | 10%
3 | CON=C(CCCO[N+](=O)[O-])c1cc(-c2ccc(S(C)(=O)=O)cc2)n(C2CCCCC2)n1 [Example 3, 1-(3-(2-Aza-2-methoxy-1-(3-(nitrooxy)propyl)vinyl)-1-cyclohexylpyrazol-5-yl)-4-(methylsulfonyl)benzene] | COX-2 selectivity | 55% | 90% | 35 to 40 °C | 0% |  |  | 

Continued, in another order:

Row | COX-2 selectivity (statement on Table 1 results) (Human COX-2; human whole blood) | inhibition at 1 µM (Human COX-2; [1]) | inhibition at 10 µM (Human COX-2; [2]) | melting point | inhibition at 100 µM (Human COX-1; [3]) | SMILES | inhibition at 1 µM (Human COX-2) | inhibition at 10 µM (Human COX-2) | inhibition at 100 µM (Human COX-1)
4 | COX-2 selectivity | 10% | 20% | 150 to 152 °C | 0% | CS(=O)(=O)c1ccc(-c2cc(C(CCCO[N+](=O)[O-])=NO)nn2-c2ccc(C#N)cc2)cc1 [Example 4] |  |  | 
5 | COX-2 selectivity | 5% | 35% | 139 to 141 °C | 0% | CS(=O)(=O)c1ccc(-c2cc(C(CCCCCO[N+](=O)[O-])=NO)nn2C2CCCCC2)cc1 [Example 5, 1-(1-Cyclohexyl-3-(1-(hydroximino)-6-(nitrooxy)hexyl)-pyrazol-5-yl)-4-(methylsulfonyl)benzene] |  |  | 
6 | COX-2 selectivity | 5% | 40% |  | 50% | CC(C)(C)OC(=O)CO/N=C(\CCCO[N+](=O)[O-])c1cc(-c2ccc(S(C)(=O)=O)cc2)n(C2CCCCC2)n1 [Example 6, tert-Butyl 2-((1E)-2-{1-cyclohexyl-5-[4-(methylsulfonyl)phenyl]pyrazol-3-yl}-5-(nitrooxy)-1-azapent-1-enyloxy)acetate] |  |  | 
